Source: ChEMBL document CHEMBL1201862, “PubChem BioAssay data set” (2004)
The source made the active and inactive calls. No stated cut-off is given here; in the data, actives have a measured IC50 and inactives only a lower limit.

Molecular target: Envelope glycoprotein gp160 (Human immunodeficiency virus 1, UniProt Q6QLK5)
Experiment: inhibitors of HIV fusion peptide binding, primary screen, biochemical, uHTS, fluorescence dequenching (AID 1986)

Sequence of Envelope glycoprotein gp160 (Q6QLK5 whole entry, the tested form may be a part): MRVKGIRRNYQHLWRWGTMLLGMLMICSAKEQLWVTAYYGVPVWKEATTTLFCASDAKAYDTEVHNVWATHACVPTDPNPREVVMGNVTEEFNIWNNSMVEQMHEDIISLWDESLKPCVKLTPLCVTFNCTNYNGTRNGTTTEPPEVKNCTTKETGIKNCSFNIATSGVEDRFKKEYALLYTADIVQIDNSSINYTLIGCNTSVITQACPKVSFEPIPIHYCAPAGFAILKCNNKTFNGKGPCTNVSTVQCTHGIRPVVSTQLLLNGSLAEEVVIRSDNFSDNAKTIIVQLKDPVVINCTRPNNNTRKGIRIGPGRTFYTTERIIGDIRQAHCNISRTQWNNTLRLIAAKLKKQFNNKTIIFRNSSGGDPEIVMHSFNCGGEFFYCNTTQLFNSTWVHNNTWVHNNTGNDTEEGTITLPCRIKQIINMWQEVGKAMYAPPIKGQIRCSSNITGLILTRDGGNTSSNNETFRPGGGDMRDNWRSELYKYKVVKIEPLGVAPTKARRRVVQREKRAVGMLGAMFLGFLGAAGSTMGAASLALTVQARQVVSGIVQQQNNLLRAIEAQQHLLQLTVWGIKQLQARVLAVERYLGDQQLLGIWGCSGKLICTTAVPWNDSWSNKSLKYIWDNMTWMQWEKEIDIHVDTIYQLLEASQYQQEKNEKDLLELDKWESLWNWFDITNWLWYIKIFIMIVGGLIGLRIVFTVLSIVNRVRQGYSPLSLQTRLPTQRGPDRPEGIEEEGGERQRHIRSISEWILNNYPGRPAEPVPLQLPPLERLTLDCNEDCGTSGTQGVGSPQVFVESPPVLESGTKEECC

Row | Structure (SMILES) | IC50
1 | O=C(Nc1cccc(C(F)(F)F)c1)c1cccc(NS(=O)(=O)c2ccc(O)c(C(=O)O)c2)c1 | 8.83 µM (active)
2 | COC(=O)c1sc(-c2ccc(C(C)(C)C)cc2)cc1NC(=O)COCC(=O)O | 20.9 µM (active)
